Experimental findings from patent US11584765B2 (priority 2017, dated 2023) are described below.

The structures appear in SMILES notation.

This test deals with C57BL/6 mice. As to the kind of experiment: animal or person. The class given is in vivo. The note with it: Mus musculus, sc, 0.5 h, s.c. administration, 30 min, 55° C. water, read-out: ED50 (mg/kg) at 30 min on C57BL/6 mice in Warm-water Tail-flick Test. A general note: In hot-plate and tail-flick tests a longer latency is read as antinociception.
In the case of `CC(c1cccnc1)N1CC[C@@](CO)(CCc2cccs2)C1` (stereo partly drawn) [Compound 414, ((3S)-1-(1-(pyridin-3-yl)ethyl)-3-(2-(thiophen-2-yl)ethyl)pyrrolidin-3-yl)methanol], the ED50 was less than 10 mg/kg.
The result for `CC(C)(c1cccnc1)N1CC[C@@](CO)(CCc2cccs2)C1` [Compound 415] reads less than 10 mg/kg; that for `CCOC[C@@]1(CCc2cccs2)CCN(Cc2c(C)cc(C)nc2C)C1` [Compound 416, (S)-3-((3-(ethoxymethyl)-3-(2-(thiophen-2-yl)ethyl)pyrrolidin-1-yl)methyl)-2,4,6-trimethylpyridine], less than 10 mg/kg.
`Cn1cc(CN2CCC(CCc3ccccc3)(c3ccccn3)CC2)cn1` [Compound 417, 2-(1-((1-methyl-1H-pyrazol-4-yl)methyl)-4-phenethylpiperidin-4-yl)pyridine]: the ED50 is less than 10 mg/kg.
`Cc1ccc(CN2[C@@H](C)CC(CCc3ccc(F)cc3)(c3ccccn3)C[C@@H]2C)cn1` (stereo partly drawn) [Compound 418, 5-(((2S,6S)-4-(4-fluorophenethyl)-2,6-dimethyl-4-(pyridin-2-yl)piperidin-1-yl)methyl)-2-methylpyridine]: the ED50 is more than 10 mg/kg.
The result for `CCOC[C@@]1(COc2ccccc2)CCN(Cc2ccc(C)nc2)C1` [Compound 419, (R)-5-((3-(ethoxymethyl)-3-(phenoxy-methyl)pyrrolidin-1-yl)methyl)-2-methylpyridine] reads less than 10 mg/kg.
Regarding `CCOC[C@@]1(CCc2ccccn2)CCN(Cc2cccnc2)C1` [Compound 420], the ED50 was less than 10 mg/kg.
The result for `CCOC[C@@]1(CN(C)c2ccccc2)CCN(Cc2ccc(C)nc2)C1` [Compound 421, (S)-N-((3-(ethoxymethyl)-1-((6-methylpyridin-3-yl)methyl)pyrrolidin-3-yl)methyl)-N-methylaniline] reads less than 10 mg/kg; that for `CCOC[C@@]1(COc2ccc(F)cc2)CCN(Cc2ccc(C)nc2)C1` [Compound 426, (R)-5-((3-(ethoxymethyl)-3-((4-fluoro-phenoxy)methyl)pyrrolidin-1-yl)methyl)-2-methylpyridine], less than 10 mg/kg.
Take `CCOCC1(CCC2CC2)CCN(Cc2ccc(C)nc2)C1` (stereo not shown) [Compound 427, 5-((3-(2-cyclopropylethyl)-3-(ethoxy-methyl)pyrrolidin-1-yl)methyl)-2-methylpyridine]: the ED50 was less than 10 mg/kg.
For the compound `CCOC[C@@]1(CCc2cccs2)CCN(Cc2cccnc2C)C1` [Compound 428, (S)-3-((3-(ethoxymethyl)-3-(2-(thiophen-2-yl)ethyl)pyrrolidin-1-yl)methyl)-2-methylpyridine], the ED50 was less than 10 mg/kg.
Regarding `CCOCC1(CCc2cccs2)CN(Cc2ccc(C)nc2)C1` [Compound 429, 5-((3-(ethoxymethyl)-3-(2-(thiophen-2-yl)ethyl)azetidin-1-yl)methyl)-2-methylpyridine], the ED50 was less than 10 mg/kg.
`CCOC[C@@]1(CCc2cccs2)CCN(Cc2cnn(C)c2)C1.Cl` [Compound 430, (S)-4-((3-(ethoxymethyl)-3-(2-(thiophen-2-yl)ethyl)pyrrolidin-1-yl)methyl)-1-methyl-1H-pyrazole HCl]: the ED50 is less than 10 mg/kg.
As to `CCOCC1(CCC2CC2)CCN(C(C)(C)c2ccc(C)nc2)C1` (stereo not shown) [Compound 431, 5-(2-(3-(2-cyclopropylethyl)-3-(ethoxy-methyl)pyrrolidin-1-yl)propan-2-yl)-2-methylpyridine], the ED50 was less than 10 mg/kg.
For the compound `Cc1ccc(CN2CCC(CCc3ccccc3)(c3ccccn3)CC2)cn1` [Compound 432, 2-methyl-5-((4-phenethyl-4-(pyridin-2-yl)piperidin-1-yl)methyl)pyridine], the ED50 is less than 10 mg/kg.
The result for `CC(C)(c1cccnc1)N1CCC(CCc2ccccc2)(c2ccccn2)CC1` [Compound 433, 2-(4-phenethyl-1-(2-(pyridin-3-yl)propan-2-yl)piperidin-4-yl)pyridine] reads less than 10 mg/kg; that for `CCOC[C@@]1(CCc2ccc(F)cc2)CCN(C2(c3ccc(C)nc3)CC2)C1` [Compound 434, (S)-5-(1-(3-(ethoxymethyl)-3-(4-fluoro-phenethyl)pyrrolidin-1-yl)cyclopropyl)-2-methylpyridine], less than 10 mg/kg.
In the case of `CCOC[C@@]1(CCc2ccc(F)s2)CCN(C2(c3ccc(C)nc3)CC2)C1` [Compound 435], the ED50 is less than 10 mg/kg.
For the compound `CCOC[C@@]1(CCc2ccc(F)cc2)CCN(C2(c3cnc(C)cc3CC)CC2)C1` [Compound 436, (S)-5-(1-(3-(ethoxymethyl)-3-(4-fluoro-phenethyl)pyrrolidin-1-yl)cyclopropyl)-4-ethyl-2-methylpyridine], the ED50 is less than 10 mg/kg.
Consider `CCOC[C@@]1(CCc2ccc(C)cc2)CCN(Cc2cccnc2)C1` [Compound 437, (S)-3-((3-(ethoxymethyl)-3-(4-methyl-phenethyl)pyrrolidin-1-yl)methyl)pyridine], for which the ED50 was less than 10 mg/kg.
The result for `CCOCC1(CCc2ccccc2)CCN(N(C)c2ccc(C)nc2)C1` (stereo not shown) [Compound 438, N-(3-(ethoxymethyl)-3-phenethylpyrrolidin-1-yl)-N,6-dimethylpyridin-3-amine] reads more than 10 mg/kg; that for `CCOC[C@@]1(CCc2ccc(F)cn2)CCN(Cc2cnc3ccccc3c2)C1` [Compound 439, (S)-3-((3-(ethoxymethyl)-3-(2-(5-fluoropyridin-2-yl)ethyl)pyrrolidin-1-yl)methyl)quinoline], less than 10 mg/kg; that for `CCOC[C@@]1(CCc2ccccc2F)CCN(Cc2cccnc2)C1` [Compound 440], less than 10 mg/kg.
As for `CCOC[C@@]1(CCc2cccc(F)c2)CCN(Cc2cccnc2)C1` [Compound 441, (S)-3-((3-(ethoxymethyl)-3-(3-fluoro-phenethyl)pyrrolidin-1-yl)methyl)pyridine], the ED50 is less than 10 mg/kg.
For the compound `CCOC[C@@]1(CNc2ccccc2)CCN(Cc2ccc(C)nc2)C1.Cl` [Compound 442, (R)-N-((3-(ethoxymethyl)-1-((6-methylpyridin-3-yl)methyl)pyrrolidin-3-yl)methyl)aniline HCl], the ED50 is less than 10 mg/kg.
In the case of `CCOC[C@@]1(CN(C)c2ccccc2)CCN(Cc2cccnc2)C1.Cl` [Compound 443, (S)-N-((3-(ethoxymethyl)-l-(pyridin-3-ylmethyl)pyrrolidin-3-yl)methyl)-N-methylaniline HCl], the ED50 is less than 10 mg/kg.
With `CCOC[C@@]1(COc2ccccc2)CCN(Cc2cccnc2)C1.Cl` [Compound 444, (R)-3-((3-(ethoxymethyl)-3-(phenoxy-methyl)pyrrolidin-1-yl)methyl)pyridine HCl], the ED50 is less than 10 mg/kg.
Consider `CCOC[C@@]1(CCc2nccn2C)CCN(C(C)(C)c2ccc(C)nc2)C1.Cl` [Compound 445, (S)-5-(2-(3-(ethoxymethyl)-3-(2-(1-methyl-1H-imidazol-2-yl)ethyl)pyrrolidin-1-yl)propan-2-yl)-2-methylpyridine HCl], for which the ED50 was less than 10 mg/kg.
Regarding `CCOC[C@@]1(CCc2nccn2C)CCN(C(C)c2ccc(C)nc2)C1.Cl` (stereo partly drawn) [Compound 446, 5-(1-((S)-3-(ethoxymethyl)-3-(2-(1-methyl-1H-imidazol-2-yl)ethyl)pyrrolidin-1-yl)ethyl)-2-methylpyridine HCl], the ED50 was less than 10 mg/kg.
The result for `CC(c1cccnc1)N1CCC(CCc2cccs2)(c2ccccn2)CC1.Cl` (stereo not shown) [Compound 447, 2-(1-(1-(pyridin-3-yl)ethyl)-4-(2-(thiophen-2-yl)ethyl)piperidin-4-yl)pyridine HCl] reads less than 10 mg/kg; that for `Cl.Cn1cc(CN2CCC(CCc3cccs3)(c3ccccn3)CC2)cn1` [Compound 448], less than 10 mg/kg.
